{
  "source": "paper PMC9698773",
  "about": "“Design, Synthesis, Molecular Modeling, and Anticancer Evaluation of New VEGFR-2 Inhibitors Based on the Indolin-2-One Scaffold” (Pharmaceuticals, 2022)",
  "system": "Bcl-2",
  "assay": "Bcl-2 expression assay (Western blot)",
  "format": "cell-based, human",
  "conditions": "HepG2, 1.13 µM, 24 h",
  "method": "The expression of BAX and Bcl-2 were evaluated in the HepG2 cells after treatment with 1.13 µM of compound 17a for 24 h. The Western blotting technique was utilized to determine the levels of Bax and Bcl-2 proteins and estimate the Bax/Bcl-2 ratio.\nThe expression of apoptotic BAX and antiapoptotic Bcl-2 proteins in the liver HepG2 cells treated with 1.13 μM of 17a was determined using Western blot analysis, as described in the Supplementary Materials. […]\nCasp3 F: 5ʹ‐ […] ‐3ʹ\nCasp3 R: 5ʹ‐ […] ‐3ʹ […]\nβ‐actin F: 5ʹ‐[…]‐3ʹ […]\nβ‐actin R: 5ʹ‐[…]‐3ʹ […]\n4.2.6. Bax and Bcl‐2 expression assay\nThe expression of BAX and Bcl‐2 proteins were determined using Western blot anal‐ ysis. In brief, HepG2 cells were treated with control or with the synthesized compound 17a (1.13 μM). […] Total protein concentrations in the supernatant were colorimetrically determined using the Pierce 660 nm Protein Assay method (Thermo Fisher Scientific, Rockford, IL), with BSA as the stand‐ ard. […] Means of the detected blot intensities were then quantified, analyzed by the combined Bio‐Rad Image Lab soft‐ ware and their corresponding background subtracted, with normalization to the corre‐ sponding bands density of β‐actin as the sampling loading control. […]",
  "note": "Where “and” joins values, the source holds several entries; their conditions need not be identical. Equal values may be shown once.",
  "data": [
    {"smiles": "O=C1Nc2ccccc2C1=Nc1ccc(C(=O)NNC(=S)Nc2ccccc2)cc1", "note": "[Compound 17a, 2-(4-((2-Oxoindolin-3-ylidene)amino)benzoyl)-N-phenylhydrazinecarbothioamide]", "values": [
      {"measurement": "decrease of Bcl-2 expression versus control", "result": "1.88 fold and 1.9 fold"},
      {"measurement": "Protein Expression (Normalized to β-Actin) Bcl-2", "setting": "control 0.432", "result": 0.229}
    ]}
  ]
}
